According to publication PMC6263544, “Second-generation pterocarpanquinones: synthesis and antileishmanial activity” (The Journal of Venomous Animals and Toxins Including …, 2018):
pIC50: −log10 of the molar value.

What was measured:
[1] = test system: intracellular amastigotes of L. infantum; assay: Antiamastigote test, L. infantum in mouse peritoneal macrophages; format: cell-based, Leishmania infantum; details: CC50 in Macrophages/IC50 in intracellular amastigotes
Experimental: (§1) For the test against intracellular amastigotes of L. amazonensis and L. infantum, resident peritoneal macrophages (swiss mouse) were plated in RPMI (Sigma-Aldrich) at 2 × 10^6/mL (0.4 mL/well) in Lab-Tek eight-chamber slides (Nunc, Roskilde, Denmark) and incubated at 37 °C in 5% CO2 for 1 h. Stationary-phase L. amazonensis and L. infantum promastigotes were added at respective parasite/macrophage ratios of 3:1 and 5:1 for 4 h. After washing three times, pterocarpanquinones 2a-f at various concentrations were added for 72 h. Next, the slides were stained using an Instant Prov hematological dye system (Newprov, Curitiba, Brazil). The number of amastigotes was determined by counting at least 100 macrophages per sample.
(§2) The results were expressed as an infection index (% infected cells×number of amastigotes/total number of macrophages). The 50% inhibitory concentration (IC50) was determined by nonlinear regression analysis in the software GraphPad Prism 5.

[2] = test system: intracellular amastigotes of L. amazonensis; assay: Antiamastigote test, L. amazonensis in mouse peritoneal macrophages; format: cell-based, Leishmania amazonensis; details: CC50 in Macrophages/IC50 in intracellular amastigotes
Experimental: as §1, §2

[3] = test system: L. braziliensis promastigotes; design: method as in PMID 25340550; details: read-out: L. braziliensis Promastigote IC50; cited from earlier work
[4] = test system: L. infantum promastigotes; design: method as in PMID 27067332; details: read-out: L. infantum Promastigote IC50; cited from earlier work
[5] = test system: intracellular amastigotes of L. amazonensis; design: method as in PMID 21531758; details: read-out: L. amazonensis Amastigote IC50; cited from earlier work
[6] = test system: intracellular amastigotes of L. infantum; design: method as in PMID 27067332; details: read-out: L. infantum Amastigote IC50; cited from earlier work
[7] = test system: intracellular amastigotes of L. braziliensis; assay: Antiamastigote test, L. braziliensis in golden hamster macrophages; format: cell-based; details: CC50 in Macrophages/IC50 in intracellular amastigotes
Experimental: Macrophages of golden hamsters were used in assays against intracellular amastigotes of L. braziliensis due to the natural resistance of mice. Resident macrophages were obtained from the peritoneal cells of golden hamsters after a peritoneal injection of 10 mL of Dulbecco’s Modified Eagle’s medium (DMEM) (Sigma-Aldrich). The peritoneal macrophages were plated onto glass coverslips placed within the wells of a 24-well culture plate and incubated at 37 °C in 5% CO2 for 1 h. After removing the nonadherent cells, the monolayers were infected with stationary-phase L. braziliensis promastigotes at a 5:1 parasite/macrophage ratio for 4 h. The infected macrophages were washed and incubated with several pterocarpanquinone concentrations (0-25 μM) for 72 h. The monolayers were then stained with Giemsa, and at least 100 infected macrophages per sample were counted under optical microscopy.
as §2

[8] = test system: L. amazonensis promastigotes; design: method as in PMID 21531758; details: read-out: L. amazonensis Promastigote IC50; cited from earlier work
[9] = test system: peritoneal macrophages of Swiss mice; design: method as in PMID 21531758; details: murine macrophage; cited from earlier work
[10] = test system: intracellular amastigotes of L. braziliensis; design: method as in PMID 25340550; details: read-out: L. braziliensis Amastigote IC50; cited from earlier work

## O=C1C2=C(C(=O)c3ccccc31)[C@H]1Oc3ccccc3[C@H]1CO2 [LQB-118 (1)]
[1]
  L. infantum SI (Selective Index): 5.68
[2]
  L. amazonensis SI (Selective Index): 12.73
[3]
  pIC50: 5.47
[4]
  pIC50: 5.39
[5]
  pIC50: 5.84
[6]
  pIC50: 5.49
[7]
  L. braziliensis SI (Selective Index): 2.46
[8]
  pIC50: 5.76
[9]
  CC50: 18.5 µM
[10]
  pIC50: 5.12
